Source: ChEMBL document CHEMBL1151384, “The Alkaloids of Thalictrum foliolosum” (J Nat Prod, 1982)
Activity calls are given as the source filed them.

Columns and labels:
Assay type in all cases: functional, organism-based
Pseudomonas aeruginosa = assay: Antibacterial activity against Pseudomonas aeruginosa
Cryptococcus neoformans = assay: Antifungal activity against Cryptococcus neoformans
[1] = test system: Trichophyton mentagrophytes; assay: Antifungal activity against Trichophyton mentagrophytes
Staphylococcus aureus = assay: Antibacterial activity against Staphylococcus aureus
Aspergillus fumigatus = assay: Antifungal activity against Aspergillus fumigatus
Klebsiella pneumoniae = assay: Antibacterial activity against Klebsiella pneumoniae
Sporothrix schenckii = assay: Antifungal activity against Sporotrichum schenckii
Candida albicans = assay: Antifungal activity against Candida albicans
Escherichia coli = assay: Antibacterial activity against Escherichia coli
Enterococcus faecalis = assay: Antibacterial activity against Streptococcus faecalis

Measured: Activity

COc1ccc2cc1Oc1ccc(cc1)C[C@H]1c3cc(OC)c(OC)c(c3CCN1C)Oc1c(OC)c(OC)cc3c1[C@H](C2)N(C)CC3
inactive: all assays above

COc1ccc2c(c1)-c1c(OC)c(OC)cc3c1[C@H](C2)N(C)CC3
inactive: all assays above

COc1ccc2cc1Oc1ccc(cc1)C[C@H]1c3cc(OC)c(OC)c(c3CCN1C)Oc1c(O)c(OC)cc3c1[C@H](C2)N(C)CC3
inactive: all assays above

COc1cc(C[C@H]2c3cc(OC)c(OC)cc3CCN2C)c(Oc2cc3c(cc2OC)-c2c(OC)c(OC)cc4c2[C@H](C3)N(C)CC4)cc1OC
inactive: all assays above
